The results in this text go back to patent publication US8642593B2, “2,4-pyrimidinediamine compounds and prodrugs and their uses” (Rigel Pharmaceuticals, Inc., priority 2009, dated 2014).

The test system of assay [1] is mast cell activation induced by FcγR cross-linking (CHMC cells). The assay is described as follows: LD Tryptase CHMC: tryptase release assay. Particulars: for inhibition in tryptase assay, in words: prodrug. Type of assay: cell-based, Human. Here is the method:
Compounds are assayed for inhibition of mast cell activation induced by FcγR cross-linking by measuring the activity of tryptase released upon degranulation as follows:
Human mast cells are cultured and differentiated from CD38-negative progenitor cell as described in U.S. Patent Publication No. 2005/0234049, which is hereby incorporated herein by reference in its entirety. For example, 65 μL of various concentrations of the test compound are prepared in MT (137 mM NaCl, 2.7 mM KCl, 1.8 mM CaCl2, 1.0 mM MgCl2, 5.6 mM Glucose, 20 mM Hepes (pH 7.4), 0.1% Bovine Serum Albumin, (Sigma, #A4503)) containing 2% MeOH and 1% DMSO, or control buffer are added to duplicate 96-well V-bottom plates. Pelleted and re-suspended (in warm MT) CHMC cells (65 μL) are added to each 96-well plate, mixed and incubated for 1 hour at 37° C. […] MT (25 μL) is added to control wells. After a 60-minute incubation at 37° C., cells and cell debris were pelleted by centrifugation at 1000 rpm for 10 min and tryptase and leukotriene C4 levels are measured.
To measure tryptase levels, 25 μL of supernatant from each well is transferred to a fresh 96-well black bottom plate, to which 100 μL of fresh tryptase substrate solution [(Z-Ala-Lys-Arg-AMC2TFA; Enzyme Systems Products, #AMC-246)]1:2000 in tryptase assay buffer [0.1M Hepes (pH 7.5), 10% w/v Glycerol, 10 μM Heparin (Sigma H-4898) 0.01% NaN3] is added. After 30 minutes incubation at room temperature, the optical density of the plates is measured at 355 nm/460 nm on a spectrophotometric plate reader.
Compounds of the disclosure were assayed for their ability to inhibit mast cell activation induced by FcγR cross-linking by measuring the activity of tryptase released upon degranulation.

Assay [2] deals with allergen induced basophil degranulation. In words: CD63 Assay (BASOTEST, FACS, whole blood, anti-IgE). The class given is cell-based. Conditions: whole blood, anti-IgE; Table 2, unit inferred. Here is the method:
Compounds are tested for the ability to inhibit allergen induced basophil degranulation. The BASOTEST® kit (Orpegen Pharma GmbH, #10-0500) is used in this assay. In a 5 mL FACS tube 105 μL of Heparinized whole blood, 25 μL of test compound solution (in DMSO) are incubated at room temperature for 30-60 minutes. To induce degranulation, 20 μL stimulation buffer (Reagent B) is added, and the tube is incubated for 10 min in a 37° C. water bath. Then, 100 μL of anti-IgE (2 μg/mL) is added, or 100 µL of washing solution (reagent A) is added (i.e., as a negative control). The tube is incubated for 20 min in a 37° C. water bath. Degranulation is then stopped by incubation on ice for 5 min. 20 μL of staining reagent (reagent F) is added, and the tube is incubated on ice in the dark for 20 min. 2 mL of room temperature lysing solution is added, and the tube is incubated at room temperature for 10 min. The tubes are spun down at 4° C. for 5 min at 1600 rpm, and the supernatant is discarded. 3 mL washing solution (reagent A) is added, and the tubes spun down at 4° C. for 5 min at 1600 rpm, and the supernatant is discarded. 200 μL washing solution is added to the remaining cell pellet, and the samples are incubated on ice in the dark until analysis (within 2 h). Analysis is performed using flow cytometry at 488 nm using the conditions specified in the BASOTEST® kit instructions to determine percentage of activated basophilic granulocytes.

Where [3] appears, read: human mast cells, anti-IgG stimulation, read-out: IC50 (LD Tryptase CHMC).

Like-named read-outs stand apart in the source and are kept apart here.

For `COc1cc(Nc2ncc(F)c(Nc3ccc4c(n3)NC(=O)C(C)(C)O4)n2)cc(OC)c1OC` [N4-(2,2-Dimethyl-3-oxo-4H-5-pyrido[1,4]oxazin-6-yl)-5-fluoro-N2-(3,4,5-trimethoxyphenyl)-2,4-pyrimidinediamine, reference compound], the IC50 in assay [1] (Homo sapiens, Mast cell, Table 2, unit inferred, read-out: LD Tryptase CHMC) was determined as 40 nM; in assay [2], 930 nM.
In the case of `CC1(C)Oc2ccc(Nc3nc(Nc4ccc(N5CCOCC5)nc4)ncc3F)nc2N(COP(=O)([O-])[O-])C1=O.[Na+].[Na+]` [Compound 2, N4-[2,2-Dimethyl-4-[(dihydrogenphosphonoxy)methyl]-3-oxo-5-pyrido[1,4]oxazin-6-yl]-5-fluoro-N2-(6-morpholinopyridin-3-yl)-2,4-pyrimidinediamine disodium salt], in assay [1] (setting [3]), the IC50 was determined as 21900 nM. For the same compound, in assay [1], the “inhibition in tryptase assay, in words” value is “only micromolar inhibition”.
Taken in the same sequence, the figures for `CC1(C)Oc2ccc(Nc3nc(Nc4ccc(N5CCOCC5)cc4)ncc3F)nc2N(COP(=O)([O-])[O-])C1=O.[Na+].[Na+]` [Compound 4, N4-[2,2-Dimethyl-4-[(dihydrogenphosphonoxy)methyl]-3-oxo-5-pyrido[1,4]oxazin-6-yl]-5-fluoro-N2-(4-morpholinophenyl)-2,4-pyrimidinediamine disodium salt] were 2360 nM and “only micromolar inhibition”.
